{
  "source": "BindingDB's records for doi:10.1021/jm801416q",
  "about": "(Pharmacopeia, 2010)",
  "assay": "Antagonist activity at human CCR1 in THP1 cells assessed as inhibition of MIP-1-alpha-induced chemotaxis after 3 hrs",
  "data": [
    {"compound": "COc1ccc(NC(=O)N2CCC[C@@H]2C(=O)N(C)Cc2ccc(Cl)cc2)cc1", "note": "[(R)-N2-(4-Chlorobenzyl)-N1-(4-methoxyphenyl)-N2-methylpyrrolidine-1,2-dicarboxamide]", "values": [
      {"measurement": "IC50", "result": 440, "unit": "nM"}
    ]},
    {"compound": "Cc1cc(C(F)(F)F)cc(C)c1NC(=O)N1CCC[C@@H]1C(=O)N(C)Cc1ccc(Cl)cc1", "note": "[(R)-N2-(4-Chlorobenzyl)-N1-[2,6-dimethyl-4-(trifluoromethyl)phenyl]-N2-methylpyrrolidine-1,2-dicarboxamide]", "values": [
      {"measurement": "IC50", "result": 6, "unit": "nM"}
    ]},
    {"compound": "CN(Cc1ccc(Cl)cc1)C(=O)[C@H]1CCCN1C(=O)Nc1ccc(C(F)(F)F)cc1Cl", "note": "[(R)-N2-(4-Chlorobenzyl)-N1-[2-chloro-4-(trifluoromethyl)phenyl]-N2-methylpyrrolidine-1,2-dicarboxamide]", "values": [
      {"measurement": "IC50", "result": 35, "unit": "nM"}
    ]},
    {"compound": "Cc1cc(C(F)(F)F)ccc1NC(=O)N1CCC[C@@H]1C(=O)N(C)Cc1ccc(Cl)cc1", "note": "[(R)-N2-(4-Chlorobenzyl)-N2-methyl-N1-[2-methyl-4-(trifluoromethyl)phenyl]pyrrolidine-1,2-dicarboxamide]", "values": [
      {"measurement": "IC50", "result": 16, "unit": "nM"}
    ]}
  ]
}
